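Assay format: 96-well plates, 48-hour exposure. GI50 marks 50% less growth. TGI is the concentration that stops growth completely.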 Where a SMILES comes first, the peptide text is derived from it. The star is where a group is joined. Bn = c1ccc(C*)cc1
Columns and labels:
Assay in all cases: growth of human tumour cells (NCI), 48 h
[1] = system: UO-31 renal
[2] = system: HS 578T breast
[3] = system: LOX IMVI melanoma
[4] = system: CAKI-1 renal
[5] = system: SK-OV-3 ovarian
[6] = system: HCC-2998 colon
[7] = system: HL-60(TB) leukemia
[8] = system: IGROV1 ovarian
[9] = system: SK-MEL-28 melanoma

| Compound | TGI [1] | TGI [2] | TGI [3] | TGI [4] | TGI [5] | TGI [6] | TGI [7] | TGI [8] | TGI [9] | GI50 [1] | GI50 [2] | GI50 [3] | GI50 [4] | GI50 [5] | GI50 [6] | GI50 [7] | GI50 [8] | GI50 [9] |
| --- | --- | --- | --- | --- | --- | --- | --- | --- | --- | --- | --- | --- | --- | --- | --- | --- | --- | --- |
| COC(=O)C1(Cc2ccc3c(c2)CCC3)Cc2ccccc2C1=O (stereo not drawn) | 84.4 µM | 87.6 µM | 28.5 µM | > 100 µM | 85.8 µM | > 100 µM | 32.4 µM | > 100 µM | 40.3 µM |  |  |  |  |  |  |  |  |  |
| O=C1CC(Sc2nc3ccc(I)cc3c(=O)n2Cc2ccccc2)C(=O)NN1 (stereo not drawn) | 1.97 µM | 42.4 µM | 11.2 µM | 11.2 µM | 29.7 µM | 31.8 µM | 38.4 µM | 25.2 µM | 31.7 µM |  |  |  |  |  |  |  |  |  |
| COc1ccc(-c2csc(NC(=O)CSc3nc(C)c(-c4ccccc4)n3Nc3ccccc3)n2)cc1 | > 100 µM | > 100 µM | > 100 µM | > 100 µM | > 100 µM | > 100 µM | > 100 µM | > 100 µM | > 100 µM | 1.89 µM | 6.69 µM | 5.85 µM | 2.5 µM | > 100 µM | > 100 µM | 6.29 µM | 4.25 µM | > 100 µM |
| CC1C(c2ccc3c(c2)OCO3)c2cc3c(cc2OC1N1CCOCC1)OCO3 (stereo not drawn) | 85 µM | 55.2 µM | 60.2 µM | > 82.7 µM | > 100 µM | 65.6 µM | > 62.2 µM | > 100 µM | > 46.4 µM |  |  |  |  |  |  |  |  |  |
| COC(=O)C(CC(C)C)NC(=O)C(N)Cc1ccc(OCc2ccccc2)cc1 (stereo not drawn) (H-Tyr(Bn)-Leu-OMe; configuration not given here) | > 10 µM | > 10 µM | > 10 µM | > 10 µM | > 10 µM | > 10 µM | 5.61 µM | > 10 µM | > 10 µM |  |  |  |  |  |  |  |  |  |
| NS(=O)(=O)c1ccc(NC(NC(=O)C(C(F)(F)F)C(F)(F)F)(C(F)(F)F)C(F)(F)F)cc1 | > 100 µM | > 100 µM | > 100 µM | > 100 µM | > 100 µM | > 100 µM | > 100 µM | > 100 µM | > 100 µM |  |  |  |  |  |  |  |  |  |
| N#CCCN(CCC#N)c1ccc(/C=C2\SC(=S)NC2=O)cc1Br | > 100 µM | 27.1 µM | 80.7 µM | > 100 µM | > 100 µM | > 100 µM | > 100 µM | > 100 µM | > 100 µM |  |  |  |  |  |  |  |  |  |
| Cc1cn2c(C)csc2c1P(=O)(OC(C)C)OC(C)C | > 100 µM | > 100 µM | > 100 µM | > 100 µM | > 100 µM | > 100 µM | > 100 µM | > 100 µM | > 100 µM |  |  |  |  |  |  |  |  |  |
| CCCCC/C(C=O)=C\c1ccccc1 | > 100 µM | > 100 µM | > 100 µM | > 100 µM | > 100 µM | > 100 µM | > 100 µM | > 100 µM | > 100 µM |  |  |  |  |  |  |  |  |  |
| CC(C)CCn1nc(N)c2nc3ccccc3nc21 | > 100 µM | > 100 µM | > 100 µM | > 100 µM | > 100 µM | > 100 µM | > 100 µM | > 100 µM | > 100 µM |  |  |  |  |  |  |  |  |  |
| Cc1c(C#N)c(N)n(C2OCC(O)C(O)C2O)c(=S)c1C#N (stereo not drawn) | > 100 µM | > 100 µM | > 100 µM | > 100 µM | > 100 µM | > 100 µM | > 100 µM | > 100 µM | > 100 µM |  |  |  |  |  |  |  |  |  |
| Cn1ccnc1Sc1ccc(C=Nc2ccc3nc(SCC(=O)NC4CCCCC4)sc3c2)cc1[N+](=O)[O-] | > 100 µM | 96.3 µM | > 100 µM | > 100 µM | 58.4 µM | > 100 µM | > 100 µM | > 100 µM | > 100 µM |  |  |  |  |  |  |  |  |  |
| C=C(C)[C@@]1(O[Si](C)(C)C)CCCC[C@@H]1CC(Sc1ccccc1)Sc1ccccc1 | 27.3 µM | 29.7 µM | 37.2 µM | 25.8 µM | 39.7 µM | 29.8 µM | 40.8 µM | 32.7 µM | 37 µM |  |  |  |  |  |  |  |  |  |
| N#CC(=N)c1ncn(-c2ccccc2N)c1N | > 100 µM | > 100 µM | > 100 µM | > 100 µM | > 100 µM | > 100 µM | > 100 µM | > 100 µM | > 100 µM |  |  |  |  |  |  |  |  |  |
| CC(C)(C)C(=O)C(Cc1ccccc1)C(=O)C(C)(C)C | > 100 µM | > 100 µM | > 100 µM | > 100 µM | > 100 µM | > 100 µM | > 100 µM | > 100 µM | > 100 µM |  |  |  |  |  |  |  |  |  |
| CC1=C[C@@H](C)C[C@]2(C)CC[C@H](O2)[C@]23CC[C@](C(=O)O)(C[C@H](O2)[C@@H]2O[C@@](C)(CC2=O)[C@@H](O)[C@H]2CC[C@@]4(CCC[C@@H](O4)[C@H](C)C(=O)O[C@H]4C[C@H]([C@]5(O)OCC[C@H](C)[C@@H]5O)O[C@H]4C=C1)O2)O3 | > 10 µM | > 5.94 µM | > 10 µM | > 10 µM | > 10 µM | > 10 µM | > 10 µM | > 10 µM | > 10 µM |  |  |  |  |  |  |  |  |  |
